According to patent publication US7927785B2, “Methods for in vitro expansion of hematopoietic stem cells” (The Board of Trustees of the University of Illinois, priority 2002, dated 2011):

Legend:
Assay type in all cases: cell-based
[1] = tested on: adult human bone marrow CD34+ cells; assay: Colony-forming cell (CFC) assay in methylcellulose; conditions: after 5 days
[2] = tested on: adult human bone marrow CD34+ cells; assay: Phenotypic analysis (FACS) of marrow CD34+ cells after ex vivo culture
Description: (§1) To promote cell division of isolated CD34^+ cells, a stroma-free suspension culture was established as previously described (Bazil et al., 1995). Tissue culture dishes (35 mm; Costar, Corning, N.Y.) were seeded with 1×10^5 CD34^+cells/well in 2.5 mL Iscove modified Dulbecco medium (IMDM) (Biowhittaker, Walkersville, Md.) containing 30% FBS and a cocktail of cytokines specifically thought to promote exit from G0/G1 in primitive HSC populations which consisted of 100 ng/mL recombinant stem cell factor (SCF), 100 ng/mL FLT-3 ligand, 100 ng/mL thrombopoetin (TPO) and 50 ng/mL of interleukin (IL)-3, (all from Amgen Inc., Thousand Oaks, Calif.).
(§2) Cells were maintained in the media and incubated at 37° C. in a 100%-humidified atmosphere containing 5% CO2 for 48 hours. After intial 16 hours of incubation cells were exposed to the demethylating agent, 5-aza2′deoxycitidine (5azaD) (Sigma Chemicals, St. Louis, Mo.) at a concentration of 10^−6M. After 48 hours, cells were washed by centrifugation and then equally distributed to new tissue culture dishes in 2.5 mL IMDM supplemented with 30% FBS containing cytokines known to promote terminal differentiation of HSC into multiple hematopoietic lineages. The cocktail of cytokines contained 100 ng/mL of SCF, 50 ng/ml of granulocyte colony-stimulating factor (G-CSF), 50 ng/mL of IL-3, 50 ng/ml of IL-6 and 5 units (U)/mL of recombinant erythropoietin (EPO) (Amgen Inc., Thousand Oaks, Calif.). Cells at this time point were exposed to Trichostatin (TSA) (Sigma Chemical., St. Louis, Mo.) at 5 ng/mL and the culture was continued for an additional 7 days. At the end of the culture period cells were counted for viability by the trypan blue exclusion method using an inverted microscope. 5-fluorouracil (5-FU) (Sigma Chemical., St. Louis, Mo.) was used at a concentration of 200 μg/ml and added at the 16 hour time point instead of 5azaD and the cultures carried on as described above with no addition of TSA.
(§3) The phenotypic characteristics of the CD34^+ cells were analyzed using FACS. After 9 days of culture, expanded marrow CD34^+ cells were analyzed for primitive HSC phenotype, previously defined, by using flow activated-cell sorter (FACS) (Becton Dickinson (BD) FACS Calibur, San Jose, Calif.). Cells were stained with anti-human CD34^+ moAb conjugated either to fluorescein isothiocyanate (FITC) or phycoerythrin (PE) and another moAb including anti-CD38, anti-CD117, anti-CD90. To determine the lineage positive cells a panel of moab all conjugated to FITC (anti-CD2, anti-CD14, anti-CD15, anti-CD19 and anti-GlyA) (all antibodies were purchased from BD) were utilized. All anaylsis were paired with the corresponding matched isotype control of the specific moAb utilized. All staining and washes were performed in DPBS (Biowhittaker, Walkersville Md.) and 0.5% BSA (Sigma, Chemicals Co., St. Louis, Mo.). Immediately prior to FACS anaylsis, […] propidium iodide (PI) (Sigma, Chemicals Co., St. Louis, Mo.) was added for the exclusion of nonviable cells for phenotypic analysis. Using Cell-Quest software (BD), at least 10,000 live cells were acquired for each analysis.

[3] = tested on: adult human bone marrow CD34+ cells; assay: Ex vivo expansion culture: cell counts and CD34+CD90+ cell numbers
Description: as §1, §2, §3

[4] = tested on: adult human bone marrow CD34+ cells; assay: Colony-forming cell (CFC) assay in methylcellulose
Description: Colony-forming cells (CFC) were assayed under standard conditions in semisolid media as previously described (Brandt et al., Blood 94:106-113, 1999). Briefly 1×10^3 primary CD34^+ cells or unfractionated cultured cells exposed to different conditions used following 9 days of culture were plated in duplicate cultures containing 1 ml IMDM with 1.1% methylcellulose, 30% FBS, 5×10^−5 M 2-mercaptoethanol (Methocult, Stem Cell Technologies, Vancouver, BC, Canada), and a cocktail of growth factors including 100 ng/ml of SCF, 5 U/mL of EPO, 50 ng/mL of IL-3, 50 ng/mL of IL-6 and 50 ng/mL of G-CSF (Amgen Inc., Thousand Oaks, Calif.). The cells were plated into 35 mm tissue-culture dishes (Costar), and after 14 days of incubation at 37° C. in a 100%-humidified atmosphere containing 5% CO2, the colonies were scored with an inverted microscope following standard criteria (Breems et al., Leukemia, 8:1095-1104, 1994).

[5] = 9 days of culture, single agent, % of total cells
[6] = 9 days of culture, single agent
[7] = 9 days with cytokines, mean of 3 ± SEM
[8] = colonies/plate, cells after 9 days with cytokines, mean of 2 ± SEM

Compound: O=c1[nH]cc(F)c(=O)[nH]1 [5-FU, 5-fluorouracil]
- assayable hematopoetic progenitor cells [1]: no assayable hematopoetic progenitor cells
- CD34+ CD90+ % [2, 5]: 1.2%
- CD34+ CKit lo % [2, 5]: 4%
- CD34+ Lin− % [2, 5]: 27%
- CD34+CD38− % [2, 5]: 27%
- Total CD34+ % [2, 5]: 27%
- % of CD34+ cells that were CD90+ ([2]; day 9): 10%
- % of cells that were CD34+ ([2]; day 9): 20%
- % CD34+ of all cells [3, 6]: 26%
- % CD34+ thy-1+ cells [3, 6]: 1%
- Absolute CD34+ thy-1+ cells ×10^5 [3, 6]: 0.0002 ×10^5
- Absolute CD34 counts ×10^5 [3, 6]: 0.0065 ×10^5
- Fold changes from the original cells ([3]; 9 days of culture, single agent, CD34+CD90+ cells): 0.001 fold
- Total counts ×10^5 ([3]; 9 days of culture, single agent, start 1×10^5 CD34+ cells/well): 0.025 ×10^5
- Absolute CD34+ Number (×10^4) [3, 7]: 0.1 ± 0.0 ×10^4
- Absolute CD34+CD90+ Numbers (×10^4) [3, 7]: 0.0 ×10^4
- Total Mononuclear Cell Number (×10^4) [3, 7]: 0.3 ± 0.0 ×10^4
- CD34+CD90+ cells observed ([3]; by day 9): no CD34^+CD90^+ cells were observed
- Fold Expansion of CD34+CD90+ ([3]; compared to the primary cell numbers, mean of 3 ± SEM): 0.0 fold
- absolute number of CD34+CD90+ cells in the culture ([3]; day 9, from 22,000 at start): 700
- assayable hematopoietic progenitor cells ([4]; 9 days with cytokines, compared with primary cells): no assayable hematopoietic progenitor cells
- Total Number Colonies/plate ([4]; cells after 9 days with cytokines, mean of 2 ± SEM): 0
- BFU-E [4, 8]: 0
- CFU-GM [4, 8]: 0
- CFU-Mix [4, 8]: 0
- Plating Efficiencies ([4]; total number of hematopoietic colonies/total cells plated × 100): 0
